{"source": "BindingDB's records for PubMed 40236523", "about": "(Emory University)", "note": "Where a name gives a salt, the structure may show the parent alone. Where a SMILES comes first, the peptide text is derived from it. Bridges are numbered along the chain shown (N, C = ends). [ ]: non-standard residue; d: D form. The star is where a group is joined. Trp(7-Me) = Cc1cccc2c(C[C@H](N)C(=O)O)c[nH]c12; Lys(Me3) = C[N+](C)(C)CCCC[C@H](N)C(=O)O; 2Nal = N[C@@H](Cc1ccc2ccccc2c1)C(=O)O; AEF = NCCOc1ccc(C[C@H](N)C(=O)O)cc1; 3Pal = N[C@@H](Cc1cccnc1)C(=O)O; Lys(Me) = CNCCCC[C@H](N)C(=O)O; Pen = CC(C)(S)[C@H](N)C(=O)O; Thp = NC1(C(=O)O)CCOCC1; Me2NCH2CH2 = CN(C)CC*; Tfa = O=C(C(F)(F)F)*; Sar = CNCC(=O)O", "data": [{"molecular_target": "Signal transducer and activator of transcription 3 (Homo sapiens, UniProt P40763)", "sequence (P40763 whole entry)": "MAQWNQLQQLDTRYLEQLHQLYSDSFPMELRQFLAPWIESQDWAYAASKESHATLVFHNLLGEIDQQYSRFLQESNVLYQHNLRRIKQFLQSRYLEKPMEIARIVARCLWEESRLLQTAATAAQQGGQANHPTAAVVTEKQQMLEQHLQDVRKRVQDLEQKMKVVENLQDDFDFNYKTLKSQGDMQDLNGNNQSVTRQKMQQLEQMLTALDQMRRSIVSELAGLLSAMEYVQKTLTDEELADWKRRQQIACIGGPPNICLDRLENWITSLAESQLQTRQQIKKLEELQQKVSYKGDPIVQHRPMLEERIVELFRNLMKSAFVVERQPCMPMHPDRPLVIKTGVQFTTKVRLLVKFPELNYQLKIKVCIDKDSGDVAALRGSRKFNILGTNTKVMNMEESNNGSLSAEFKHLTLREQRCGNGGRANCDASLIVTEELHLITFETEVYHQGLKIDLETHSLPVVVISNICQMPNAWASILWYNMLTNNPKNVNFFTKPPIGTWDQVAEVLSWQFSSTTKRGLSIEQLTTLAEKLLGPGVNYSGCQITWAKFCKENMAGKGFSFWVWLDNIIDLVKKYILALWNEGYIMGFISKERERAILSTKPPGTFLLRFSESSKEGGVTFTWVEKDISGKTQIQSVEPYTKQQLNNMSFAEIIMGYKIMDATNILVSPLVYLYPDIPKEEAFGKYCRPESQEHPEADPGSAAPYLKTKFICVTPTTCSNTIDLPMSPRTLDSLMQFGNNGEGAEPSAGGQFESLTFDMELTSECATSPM", "experiment": "Inhibition of STAT3 phosphorylation in human PBMC cells preincubated for 30 mins followed by addition of IL-23 and measured after 10 mins", "units": {"IC50": "pM"}, "values": [{"smiles": "CC(=O)NCCCC[C@@H]1NC(=O)[C@H](Cc2c[nH]c3c(C)cccc23)NC(=O)[C@H]([C@@H](C)O)NC(=O)[C@H](CC(N)=O)NC(=O)[C@@H](NC(=O)CCOCCOCC[N+](C)(C)C)C(C)(C)SSC(C)(C)[C@@H](C(=O)N[C@@H](Cc2ccc(OCCN)cc2)C(=O)N[C@@H](Cc2ccc3ccccc3c2)C(=O)NC2(C(=O)N[C@@H](CCC(=O)O)C(=O)N[C@@H](CC(N)=O)C(=O)N[C@@H](Cc3cccnc3)C(=O)N(C)CC(N)=O)CCOCC2)NC1=O", "IC50": 6}, {"smiles": "CC(=O)NCCCC[C@@H]1NC(=O)[C@H](Cc2c[nH]c3c(C)cccc23)NC(=O)[C@H]([C@@H](C)O)NC(=O)[C@H](CC(N)=O)NC(=O)[C@@H](NC(C)=O)C(C)(C)SSC(C)(C)[C@@H](C(=O)N[C@@H](Cc2ccc(OCCCCC[N+](C)(C)C)cc2)C(=O)N[C@@H](Cc2ccc3ccccc3c2)C(=O)NC2(C(=O)N[C@@H](CCCCNC(C)=O)C(=O)N[C@@H](CC(N)=O)C(=O)N[C@@H](Cc3cccnc3)C(=O)N(C)CC(N)=O)CCOCC2)NC1=O", "IC50": 8}, {"smiles": "CC(=O)N[C@@H](CCCC[N+](C)(C)C)C(=O)N[C@@H]1C(=O)N[C@@H](CC(=O)N(C)C)C(=O)N[C@@H]([C@@H](C)O)C(=O)N[C@@H](Cc2c[nH]c3c(C)cccc23)C(=O)N[C@@H](CCCCN(C)C(C)=O)C(=O)N[C@H](C(=O)N[C@@H](Cc2ccc(OCCN(C)C)cc2)C(=O)N[C@@H](Cc2ccc3ccccc3c2)C(=O)NC2(C(=O)N[C@@H](CCC(=O)O)C(=O)N[C@@H](CC(N)=O)C(=O)N[C@@H](Cc3cccnc3)C(=O)N(C)CC(=O)N(C)C)CCOCC2)C(C)(C)SSC1(C)C", "note": "(Ac-[Lys(Me3)][Pen]D(NMe2)T[Trp(7-Me)][Lys(Me)](Ac)[Pen]Y(Me2NCH2CH2)[2Nal][Thp]EN[3Pal][Sar]-NMe2; disulfide 2-7)", "IC50": 8}, {"smiles": "CC(=O)N(C)CCCC[C@@H]1NC(=O)[C@H](Cc2c[nH]c3c(C)cccc23)NC(=O)[C@H]([C@@H](C)O)NC(=O)[C@H](CC(=O)N(C)C)NC(=O)[C@@H](NC(=O)C(F)(F)F)C(C)(C)SSC(C)(C)[C@@H](C(=O)N[C@@H](Cc2ccc(OCCN(C)C)cc2)C(=O)N[C@@H](Cc2ccc3ccccc3c2)C(=O)NC2(C(=O)N[C@@H](CCC(=O)O)C(=O)N[C@@H](CC(N)=O)C(=O)N[C@@H](Cc3cccnc3)C(=O)N(C)CC(=O)N(C)C)CCOCC2)NC1=O", "note": "(Tfa-[Pen]D(NMe2)T[Trp(7-Me)][Lys(Me)](Ac)[Pen]Y(Me2NCH2CH2)[2Nal][Thp]EN[3Pal][Sar]-NMe2; disulfide 1-6)", "IC50": 3}, {"smiles": "Cc1cccc2c(C[C@@H]3NC(=O)[C@H]([C@@H](C)O)NC(=O)[C@H](CC(N)=O)NC(=O)[C@@H](NC(=O)C(F)(F)F)C(C)(C)SSC(C)(C)[C@@H](C(=O)N[C@@H](Cc4ccc(OCCN)cc4)C(=O)N[C@@H](Cc4ccc5ccccc5c4)C(=O)NC4(C(=O)N[C@@H](CCC(=O)N(C)C)C(=O)N[C@@H](CC(N)=O)C(=O)N[C@@H](Cc5cccnc5)C(=O)N(C)CC(N)=O)CCOCC4)NC(=O)[C@H](CCC(=O)N(C)C)NC3=O)c[nH]c12", "note": "(Tfa-[Pen]NT[Trp(7-Me)]E(NMe2)[Pen][AEF][2Nal][Thp]E(NMe2)N[3Pal][Sar]-NH2; disulfide 1-6)", "IC50": 8}]}]}
